Source: ChEMBL document CHEMBL1154347, “Isoflavones with unusually modified B-rings and their evaluation as antiproliferative agents” (Bioorg Med Chem Lett, 2009)

Tests used:
HeLa = test: Cytotoxicity against human HeLa cells; type: functional
[1] = Antiproliferative activity against estrogen receptor negative human MDA-MB-436 cells
K562 = test: Antiproliferative activity against human K562 cells; type: functional
MCF7 = test: Antiproliferative activity against estrogen receptor expressing human MCF7 cells; type: functional
[2] = Antiproliferative activity against HUVEC cells; type: cell-based; conditions: human

| GI50 [1] [µM] | GI50 (K562) [µM] | GI50 (MCF7) [µM] | SMILES | CC50 (HeLa) [µM] | GI50 [2] [µM] |
| --- | --- | --- | --- | --- | --- |
| > 174 | 75 | 65 | O=c1c(-c2cc(O)cc(O)c2)coc2cc(O)cc(O)c12 | 134 | 133 |
| 17 | > 172 | 6 | O=c1c(C2=CCCC(O)C2O)coc2cc(O)cc(O)c12 (stereo not given) | 81 | 17 |
| 169 | > 185 | 73 | O=c1c(-c2cc(O)cc(O)c2)coc2cc(O)ccc12 | 160 | > 185 |
| 75 | – | 42 | COc1cc(-c2coc3cc(O)ccc3c2=O)ccc1O | – | – |
| > 196 | – | 122 | O=c1c(-c2ccc(O)cc2)coc2cc(O)ccc12 [DAIDZEIN] | – | – |
| 147 | – | 75 | O=c1c2c(O)cc(O)cc2occ1[C@]1(O)CC[C@@H](O)CC1 | – | – |
| 32 | 48 | 15 | COc1c(O)ccc(-c2coc3cc(O)cc(O)c3c2=O)c1O | 77 | 64 |
| 138 | > 162 | 84 | O=c1c([C@]2(O)CC[C@@H](O)[C@H](O)C2)coc2cc(O)cc(O)c12 | > 162 | > 162 |
| 68 | – | 37 | COc1c(O)ccc(-c2coc3cc(O)ccc3c2=O)c1O | – | – |
| 17 | – | 10 | O=c1c(-c2ccc(O)cc2)coc2cc(O)cc(O)c12 [GENISTEIN] | – | – |
